Data set [1] has as its target Acetylcholinesterase (Homo sapiens, UniProt P22303). The data set is described as follows: Inhibition of human AChE using acetylthiocholine iodide as substrate incubated for 6 mins prior to substrate addition measured after 60 to 180 secs by Ellman method. In general terms: DTNB colorimetry detects thiols as they appear.
Data set [2] is described as follows: Cytotoxicity against human SH-SY5Y cells assessed as cell viability at 3.25 uM after 24 hrs by MTT assay. It is filed as cell-based. The note with it: read-out: Activity. Background: Tetrazolium assays rely on reduction of a dye to a coloured formazan, in cell work by metabolically active cells.
A short description of data set [3]: Cytotoxicity against human SH-SY5Y cells assessed as cell viability at 13 uM after 24 hrs by MTT assay. In kind it is cell-based. The note with it: read-out: Activity.
Data set [4] concerns the target T1, Amine oxidase [flavin-containing] A (Homo sapiens, UniProt P21397).
T1 sequence (P21397 whole entry): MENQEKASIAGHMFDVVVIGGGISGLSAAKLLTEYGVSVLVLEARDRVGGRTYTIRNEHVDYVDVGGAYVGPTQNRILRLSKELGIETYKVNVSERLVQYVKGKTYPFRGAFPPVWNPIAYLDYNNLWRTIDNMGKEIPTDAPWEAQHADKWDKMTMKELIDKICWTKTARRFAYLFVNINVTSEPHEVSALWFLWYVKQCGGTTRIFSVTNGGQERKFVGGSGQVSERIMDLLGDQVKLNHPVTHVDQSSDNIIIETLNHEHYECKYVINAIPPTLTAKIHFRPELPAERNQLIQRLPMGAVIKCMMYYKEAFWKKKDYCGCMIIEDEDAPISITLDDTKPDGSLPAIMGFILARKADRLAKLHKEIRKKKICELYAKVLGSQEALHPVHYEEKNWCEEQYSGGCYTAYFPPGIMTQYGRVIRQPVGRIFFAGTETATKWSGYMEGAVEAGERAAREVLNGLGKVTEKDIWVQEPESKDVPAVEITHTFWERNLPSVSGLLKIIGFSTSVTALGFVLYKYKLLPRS
The data set is described as follows: Inhibition of human MAO-A using p-tyramine as substrate assessed as H2O2 production by amplex red assay.

The next data set in a line: in vitro. The note with it: PAMPA. On the technique in general: In PAMPA a lipid-coated filter parts donor from acceptor wells.
Data set [5] in a line: Cytotoxicity against human SH-SY5Y cells assessed as cell viability at 0.81 uM after 24 hrs by MTT assay. In kind it is cell-based. The note with it: read-out: Activity.
The target in another data set is Cholinesterase (Homo sapiens, UniProt P06276). The data set is described as follows: Inhibition of human BuChE using S-butyrylthiocholine iodide as substrate incubated for 6 mins prior to substrate addition measured after 60 to 180 secs by Ellman method.
Another data set is filed under the species Homo sapiens. In words: Selectivity index, ratio of IC50 for human MAO-A to IC50 for human MAO-B.
Data set [6] addresses T2, Acetylcholinesterase (Electrophorus electricus, UniProt O42275).
Description: Inhibition of electric eel AChE using acetylthiocholine iodide as substrate incubated for 6 mins prior to substrate addition measured after 60 to 180 secs by Ellman method
Data set [7] is described as follows: Cytotoxicity against human SH-SY5Y cells assessed as cell viability at […] after 24 hrs by MTT assay. In kind it is cell-based. The note with it: read-out: Activity.
The target of data set [8] is T3, Amine oxidase [flavin-containing] B (Homo sapiens, UniProt P27338).
T3 sequence (P27338 whole entry): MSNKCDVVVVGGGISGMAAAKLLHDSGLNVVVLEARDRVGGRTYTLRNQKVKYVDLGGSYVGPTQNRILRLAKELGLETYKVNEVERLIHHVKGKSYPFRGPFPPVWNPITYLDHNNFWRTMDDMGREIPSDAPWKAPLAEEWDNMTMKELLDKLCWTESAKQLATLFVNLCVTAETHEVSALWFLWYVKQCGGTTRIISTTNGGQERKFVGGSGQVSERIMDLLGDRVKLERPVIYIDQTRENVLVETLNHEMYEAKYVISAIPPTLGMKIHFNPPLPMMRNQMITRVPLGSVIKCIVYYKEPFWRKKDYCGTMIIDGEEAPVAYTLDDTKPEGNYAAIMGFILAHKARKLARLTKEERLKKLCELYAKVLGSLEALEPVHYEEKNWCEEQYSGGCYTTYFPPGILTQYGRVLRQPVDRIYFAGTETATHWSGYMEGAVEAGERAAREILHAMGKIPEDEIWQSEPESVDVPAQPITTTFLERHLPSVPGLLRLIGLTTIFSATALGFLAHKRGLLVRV
The data set is described as follows: Reversible inhibition of human MAO-B at 100 times IC50 incubated for 30 mins followed by 100 fold dilution to IC50 by dilution assay relative to control. The settings on record: 0.5 h.

The target of data set [9] is T3, Amine oxidase [flavin-containing] B. The data set is described as follows: Competitive inhibition of human MAO-B using p-tyramine as substrate at 0.5 to 0.125 uM by double reciprocal Lineweaver-Burk plot analysis.
A short description of data set [10]: Cytotoxicity against human SH-SY5Y cells assessed as cell viability at 1.63 uM after 24 hrs by MTT assay. It is filed as cell-based. The note with it: read-out: Activity.
Data set [11] concerns the target T2, Acetylcholinesterase. In words: Mixed-type inhibition of electric eel AChE by Lineweaver-Burk plot analysis.

Molecules are shown by their SMILES.

T2 sequence (O42275 whole entry): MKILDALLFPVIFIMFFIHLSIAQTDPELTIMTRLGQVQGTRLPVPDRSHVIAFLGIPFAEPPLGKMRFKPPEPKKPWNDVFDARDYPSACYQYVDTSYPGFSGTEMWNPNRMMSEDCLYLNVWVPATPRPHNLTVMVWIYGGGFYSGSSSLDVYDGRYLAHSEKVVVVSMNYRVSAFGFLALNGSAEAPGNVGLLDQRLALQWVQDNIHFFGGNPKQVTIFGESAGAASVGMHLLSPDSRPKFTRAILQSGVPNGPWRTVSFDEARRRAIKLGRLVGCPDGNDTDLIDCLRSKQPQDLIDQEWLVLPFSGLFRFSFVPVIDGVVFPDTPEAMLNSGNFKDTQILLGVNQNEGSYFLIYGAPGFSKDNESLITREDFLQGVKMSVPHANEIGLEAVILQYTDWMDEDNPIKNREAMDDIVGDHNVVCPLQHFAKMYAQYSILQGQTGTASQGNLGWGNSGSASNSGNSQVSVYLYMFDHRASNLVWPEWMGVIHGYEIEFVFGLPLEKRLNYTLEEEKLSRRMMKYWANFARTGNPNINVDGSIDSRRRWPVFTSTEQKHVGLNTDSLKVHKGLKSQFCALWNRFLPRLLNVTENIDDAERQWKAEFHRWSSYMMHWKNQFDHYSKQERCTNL
Acetylcholinesterase (Homo sapiens, UniProt P22303), sequence (P22303 whole entry): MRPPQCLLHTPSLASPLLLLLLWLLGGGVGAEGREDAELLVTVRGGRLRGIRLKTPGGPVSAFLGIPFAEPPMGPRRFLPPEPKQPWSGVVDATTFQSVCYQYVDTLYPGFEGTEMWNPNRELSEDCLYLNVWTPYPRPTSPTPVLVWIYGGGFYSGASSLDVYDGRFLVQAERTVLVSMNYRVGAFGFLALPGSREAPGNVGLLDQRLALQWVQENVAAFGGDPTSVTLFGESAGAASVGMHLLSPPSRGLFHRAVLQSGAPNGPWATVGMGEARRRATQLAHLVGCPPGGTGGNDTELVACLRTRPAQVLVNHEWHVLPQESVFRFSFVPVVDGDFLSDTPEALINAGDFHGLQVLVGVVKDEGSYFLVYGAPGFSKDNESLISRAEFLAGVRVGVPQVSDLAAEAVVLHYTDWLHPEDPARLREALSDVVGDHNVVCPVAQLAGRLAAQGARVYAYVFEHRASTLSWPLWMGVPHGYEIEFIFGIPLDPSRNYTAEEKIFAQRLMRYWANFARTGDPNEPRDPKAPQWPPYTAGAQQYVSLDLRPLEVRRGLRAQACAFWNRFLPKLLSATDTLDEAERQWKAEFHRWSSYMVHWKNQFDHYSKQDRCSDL
Cholinesterase, sequence (P06276 whole entry): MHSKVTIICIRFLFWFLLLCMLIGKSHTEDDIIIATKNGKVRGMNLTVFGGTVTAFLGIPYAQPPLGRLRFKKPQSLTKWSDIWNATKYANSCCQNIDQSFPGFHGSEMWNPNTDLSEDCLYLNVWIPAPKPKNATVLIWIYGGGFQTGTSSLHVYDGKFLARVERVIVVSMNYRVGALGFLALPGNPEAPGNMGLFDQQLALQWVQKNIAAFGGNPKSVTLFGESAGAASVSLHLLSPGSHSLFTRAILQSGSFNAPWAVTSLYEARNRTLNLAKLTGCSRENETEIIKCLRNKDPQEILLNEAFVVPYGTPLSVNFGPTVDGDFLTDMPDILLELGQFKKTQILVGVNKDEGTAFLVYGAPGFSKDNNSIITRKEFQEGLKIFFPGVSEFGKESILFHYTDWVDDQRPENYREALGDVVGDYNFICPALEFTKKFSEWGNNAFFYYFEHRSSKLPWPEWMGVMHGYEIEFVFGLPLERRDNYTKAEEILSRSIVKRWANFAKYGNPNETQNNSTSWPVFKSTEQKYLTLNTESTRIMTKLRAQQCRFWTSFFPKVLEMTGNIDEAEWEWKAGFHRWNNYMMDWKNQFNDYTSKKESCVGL
Description for in vitro: Permeability of the compound after 16 hrs by PAMPA

Turning to `Cc1c(C)c2ccc(OCCN3CCN(CCCNc4c5c(nc6ccccc46)CCCC5)CC3)cc2oc1=O`, the IC50 (commonly the concentration at which inhibition is half-maximal) against Acetylcholinesterase [1] amounted to 16.1 nM; in [4] it was 15100 nM; at Cholinesterase, 113 nM; at Acetylcholinesterase [6], 33.6 nM. In data set [2], the viability at 24 h, 3.25 µM was 91.1%. Further, the viability at 24 h, 13 µM in [3] is 77.1%. In “in vitro”, the apparent permeability coefficient (Papp) (as a rule, a coefficient for how fast a substance crosses the barrier) at 16 h came to 4.75 ×10⁻⁶ cm/s. Further, the viability at 24 h, 0.81 µM in data set [5] amounted to 101%. In addition, the Ratio IC50 in the data set listed under Homo sapiens came out at 62.8. Besides, the viability at 24 h, […] in data set [7] was determined as 85.7%. Also, the figures for the “inhibition (INH)” value in [8] and in data set [9] were 79% and “Active”, respectively. In [10], the viability at 24 h, 1.63 µM came to 96.6%. In addition, the inhibition constant (Ki) (usually the equilibrium dissociation constant of an inhibitor or competing ligand from its target) at Acetylcholinesterase [11] was 34.4 nM.

For the origin of these results see ChEMBL document CHEMBL3414495, “Multi-target tacrine-coumarin hybrids: cholinesterase and monoamine oxidase B inhibition properties against Alzheimer's disease” (Eur J Med Chem, 2015).
